{"source": "paper PMC3954497", "about": "(Journal of Medicinal Chemistry, 2014)", "key": {"NET": {"target": "NET (Rattus norvegicus, UniProt Q63380)", "sequence (Q63380 1-617)": "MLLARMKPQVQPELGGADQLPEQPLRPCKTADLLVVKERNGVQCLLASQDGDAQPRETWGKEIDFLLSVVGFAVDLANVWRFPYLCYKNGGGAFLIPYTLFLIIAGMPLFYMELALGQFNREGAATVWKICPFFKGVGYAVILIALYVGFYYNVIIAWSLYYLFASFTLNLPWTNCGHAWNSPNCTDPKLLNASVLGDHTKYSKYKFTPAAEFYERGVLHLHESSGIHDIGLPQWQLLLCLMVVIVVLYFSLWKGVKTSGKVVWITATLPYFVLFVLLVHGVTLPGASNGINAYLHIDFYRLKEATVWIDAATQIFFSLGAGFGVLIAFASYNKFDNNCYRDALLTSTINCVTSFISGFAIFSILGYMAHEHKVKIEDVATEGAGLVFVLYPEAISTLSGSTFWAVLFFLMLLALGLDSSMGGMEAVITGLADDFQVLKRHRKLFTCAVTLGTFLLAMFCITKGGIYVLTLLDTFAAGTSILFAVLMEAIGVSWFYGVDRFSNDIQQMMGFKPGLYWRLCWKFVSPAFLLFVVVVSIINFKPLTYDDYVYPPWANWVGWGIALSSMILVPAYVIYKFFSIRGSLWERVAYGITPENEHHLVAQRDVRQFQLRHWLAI", "assay": "biochemical", "type": "binding", "conditions": "3 h, read-out: Ki [SE interval] NET"}, "DAT": {"target": "DAT (Rattus norvegicus, UniProt P23977)", "sequence (P23977 whole entry)": "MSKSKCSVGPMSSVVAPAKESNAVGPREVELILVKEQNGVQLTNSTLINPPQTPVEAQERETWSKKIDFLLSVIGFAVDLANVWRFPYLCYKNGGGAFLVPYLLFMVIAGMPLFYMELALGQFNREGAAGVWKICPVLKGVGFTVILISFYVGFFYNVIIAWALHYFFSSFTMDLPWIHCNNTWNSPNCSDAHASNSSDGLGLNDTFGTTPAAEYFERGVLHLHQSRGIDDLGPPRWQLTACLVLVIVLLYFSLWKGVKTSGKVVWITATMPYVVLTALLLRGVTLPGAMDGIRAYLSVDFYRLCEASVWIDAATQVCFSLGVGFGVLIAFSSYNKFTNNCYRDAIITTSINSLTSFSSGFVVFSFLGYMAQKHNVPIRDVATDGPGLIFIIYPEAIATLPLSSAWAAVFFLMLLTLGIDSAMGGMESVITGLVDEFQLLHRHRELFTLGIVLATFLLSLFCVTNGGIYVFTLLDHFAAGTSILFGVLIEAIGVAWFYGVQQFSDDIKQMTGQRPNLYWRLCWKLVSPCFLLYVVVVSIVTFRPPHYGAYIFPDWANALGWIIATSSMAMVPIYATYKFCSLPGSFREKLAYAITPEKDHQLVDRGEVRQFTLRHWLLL", "type": "binding", "conditions": "for improvement in DAT affinity vs unsubstituted analogue: 4i vs 4g, 6c vs 6a"}, "SERT": {"target": "SERT (Rattus norvegicus, UniProt P31652)", "sequence (P31652 whole entry)": "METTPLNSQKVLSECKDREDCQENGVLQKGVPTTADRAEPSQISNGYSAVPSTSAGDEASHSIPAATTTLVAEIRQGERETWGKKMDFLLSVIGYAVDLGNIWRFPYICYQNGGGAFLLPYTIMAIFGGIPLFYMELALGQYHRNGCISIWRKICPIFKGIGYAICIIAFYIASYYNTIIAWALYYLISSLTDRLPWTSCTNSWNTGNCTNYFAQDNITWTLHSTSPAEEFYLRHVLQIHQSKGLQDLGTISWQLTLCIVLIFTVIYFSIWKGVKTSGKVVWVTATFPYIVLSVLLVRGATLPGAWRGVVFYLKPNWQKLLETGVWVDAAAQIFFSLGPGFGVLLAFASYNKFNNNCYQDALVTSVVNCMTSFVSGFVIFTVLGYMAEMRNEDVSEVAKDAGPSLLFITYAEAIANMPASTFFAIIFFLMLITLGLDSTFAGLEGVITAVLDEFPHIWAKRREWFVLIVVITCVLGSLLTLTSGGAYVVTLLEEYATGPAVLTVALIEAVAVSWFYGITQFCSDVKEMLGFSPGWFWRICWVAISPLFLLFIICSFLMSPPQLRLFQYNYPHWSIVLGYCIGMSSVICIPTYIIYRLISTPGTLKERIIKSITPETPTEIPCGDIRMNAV", "type": "binding", "conditions": "for increase in SERT affinity vs unsubstituted analogue: 4i vs 4g, 6c vs 6a; for displacement at the SERT: rat brain membranes"}, "NCCc1c[nH]c2ccc(O)cc12": {"test_system": "NCCc1c[nH]c2ccc(O)cc12", "assay": "cells, lysate or membranes", "conditions": "pH 7.4; 37.0 °C"}}}
{"compound": "NC(=O)CSC(c1ccccc1)c1ccccc1", "note": "[4a, 2-(Benzhydrylthio)acetamide]", "values": [{"measurement": "inhibition", "setting": "NET", "value": "< 50", "unit": "%"}]}
{"compound": "CNC(=O)CSC(c1ccc(Br)cc1)c1ccc(Br)cc1", "note": "[4i, 2-((Bis(4-bromophenyl)methyl)thio)-N-methylacetamide]", "values": [{"measurement": "improvement in DAT affinity vs unsubstituted analogue", "setting": "DAT", "value": 6, "unit": "fold"}, {"measurement": "increase in SERT affinity vs unsubstituted analogue", "setting": "SERT", "value": "> 50", "unit": "fold"}]}
{"compound": "C=CCNC(=O)CSC(c1ccccc1)c1ccccc1", "note": "[4j, N-Allyl-2-(benzhydrylthio)acetamide]", "values": [{"measurement": "inhibition", "setting": "NET", "value": "< 50", "unit": "%"}]}
{"compound": "O=C(CSC(c1ccccc1)c1ccccc1)NCC1CC1", "note": "[4o, 2-(Benzhydrylthio)-N-(cyclopropylmethyl)acetamide]", "values": [{"measurement": "inhibition", "setting": "NET", "value": "< 50", "unit": "%"}]}
{"compound": "O=C(CSC(c1ccc(Br)cc1)c1ccc(Br)cc1)NCC1CC1", "note": "[4q, 2-((Bis(4-bromophenyl)methyl)thio)-N-(cyclopropylmethyl)acetamide]", "values": [{"measurement": "inhibition", "setting": "NET", "value": "< 50", "unit": "%"}]}
{"compound": "CCCCNC(=O)CSC(c1ccccc1)c1ccccc1", "note": "[4r, 2-(Benzhydrylthio)-N-butylacetamide]", "values": [{"measurement": "inhibition", "setting": "NET", "value": "< 50", "unit": "%"}]}
{"compound": "O=C(CSC(c1ccccc1)c1ccccc1)NCCCc1ccccc1", "note": "[4u, 2-(Benzhydrylthio)-N-(3-phenylpropyl)acetamide]", "values": [{"measurement": "inhibition at 100 µM", "setting": "NET", "value": "< 50", "unit": "%"}]}
{"compound": "O=C(CSC(c1ccc(F)cc1)c1ccc(F)cc1)NCCCc1ccccc1", "note": "[4v, 2-((Bis(4-fluorophenyl)methyl)thio)-N-(3-phenylpropyl)acetamide]", "values": [{"measurement": "inhibition at 100 µM", "setting": "NET", "value": "< 50", "unit": "%"}]}
{"compound": "O=C(CSC(c1ccc(Cl)cc1)c1ccc(Cl)cc1)NCCCc1ccccc1", "note": "[4w, 2-((Bis(4-chlorophenyl)methyl)thio)-N-(3-phenylpropyl)acetamide]", "values": [{"measurement": "inhibition at 100 µM", "setting": "NET", "value": "< 50", "unit": "%"}, {"measurement": "displacement at the SERT", "setting": "SERT", "value": "no displacement"}]}
{"compound": "O=C(CSC(c1ccc(Br)cc1)c1ccc(Br)cc1)NCCCCc1ccccc1", "note": "[4z, 2-((Bis(4-bromophenyl)methyl)thio)-N-(4-phenylbutyl)acetamide]", "values": [{"measurement": "inhibition at 100 µM", "setting": "NET", "value": "< 50", "unit": "%"}, {"measurement": "displacement at the SERT", "setting": "SERT", "value": "no displacement"}]}
{"compound": "Cc1ccc(C(c2ccc(C)cc2)[S+]([O-])CC(N)=O)cc1", "note": "(stereo not drawn) [5a, 2-((Di-p-tolylmethyl)sulfinyl)acetamide]", "values": [{"measurement": "inhibition", "setting": "NET", "value": "< 50", "unit": "%"}]}
{"compound": "NC(=O)C[S+]([O-])C(c1cccc(F)c1)c1cccc(F)c1", "note": "(stereo not drawn) [5c, 2-((Bis(3-fluorophenyl)methyl)sulfinyl)acetamide]", "values": [{"measurement": "inhibition", "setting": "NET", "value": "< 50", "unit": "%"}]}
{"compound": "NC(=O)C[S+]([O-])C(c1cccc(Cl)c1)c1cccc(Cl)c1", "note": "(stereo not drawn) [5d, 2-((Bis(3-chlorophenyl)methyl)sulfinyl)acetamide]", "values": [{"measurement": "inhibition", "setting": "NET", "value": "< 50", "unit": "%"}]}
{"compound": "NC(=O)C[S+]([O-])C(c1ccccc1)c1cccc(Br)c1", "note": "(stereo not drawn) [5e, 2-(((3-Bromophenyl)phenylmethyl)sulfinyl)acetamide]", "values": [{"measurement": "inhibition", "setting": "NET", "value": "< 50", "unit": "%"}, {"measurement": "displacement at the SERT", "setting": "SERT", "value": "no displacement"}]}
{"compound": "CNC(=O)C[S+]([O-])C(c1ccccc1)c1ccccc1", "note": "(stereo not drawn) [5f, 2-(Benzhydrylsulfinyl)-N-methylacetamide]", "values": [{"measurement": "inhibition", "setting": "NET", "value": "< 50", "unit": "%"}]}
{"compound": "O=C(C[S+]([O-])C(c1ccc(Br)cc1)c1ccc(Br)cc1)NCCCc1ccccc1", "note": "(stereo not drawn) [5g, 2-((Bis(4-bromophenyl)methyl)sulfinyl)-N-(3-phenylpropyl)acetamide]", "values": [{"measurement": "inhibition at 100 µM", "setting": "NET", "value": "< 50", "unit": "%"}]}
{"compound": "NCCSC(c1ccccc1)c1ccccc1", "note": "[6a, 2-(Benzhydrylthio)ethan-1-amine]", "values": [{"measurement": "improved DAT affinity compared to (±)-1", "setting": "DAT", "value": "about 20 fold"}]}
{"compound": "NCCSC(c1ccc(Br)cc1)c1ccc(Br)cc1", "note": "[6c, 2-((Bis(4-bromophenyl)methyl)thio)ethan-1-amine]", "values": [{"measurement": "improvement in DAT affinity vs unsubstituted analogue", "setting": "DAT", "value": 3, "unit": "fold"}, {"measurement": "increase in SERT affinity vs unsubstituted analogue", "setting": "SERT", "value": 9, "unit": "fold"}]}
{"compound": "hSERT-WT (Homo sapiens)", "values": [{"measurement": "Km", "setting": "NCCc1c[nH]c2ccc(O)cc12", "value": "520 [360–760] nM"}]}
